Assay results: patent US20220152033A1, “COMPOSITIONS AND METHODS FOR DEEP DERMAL DRUG DELIVERY” (ARCUTIS BIOTHERAPEUTICS, INC., priority 2020, published 2022)

Assays:
[1] = Particle size distribution of SHR0302 by laser diffraction (Malvern, Hydro MV); assay type: physicochemical; conditions: SHR0302 used in Example 1; wet dispersion in ethyl acetate; FIG. 1
Text: In the pharmaceutical compositions of the present invention, the active ingredient is present as small particles. Particle size of the drug can be assessed using laser diffraction methods. Laser diffraction is recognized by standards and guidance agencies including ISO and ASTM and is widely used to determine particle size distributions. In conducting the assessment, the sample is passed through a laser beam, which results in laser light scattered at a range of angles. Detectors placed at fixed angles measure the intensity of light scattered at that position. A mathematical model is then applied to generate a particle size distribution. The particle size values reported herein are determined by using a liquid or wet dispersion method.
In particle size determinations, the median value is defined as the value where half of the population resides above this point, and half resides below this point. For particle size distributions the median is called the D50. The D50 is the size that splits the distribution with half above and half below this diameter. The distribution width may also be characterized by citing one, two or three values on the x-axis, typically some combination of the D10, D50, and D90. The D50, the median, has been defined above as the diameter where half of the population lies below this value. Similarly, 90 percent of the distribution lies below the D90, and 10 percent of the population lies below the D10.
A pharmaceutical composition comprising 3% SHR0302 suspended in dimethicone was prepared. The primary particle size distribution of the SHR0302 is characterized by a D10 value of less than about 0.25 μm; a D50 value of less than about 0.7 μm; and a D90 value of less than about 5 μm. The pharmaceutical composition was a transparent solution due to the particles being too small to scatter visible light. A Malvern Metasizer Model 3000 using the Hydro MV dispersion unit was used to determine the particle size distribution profile of SHR0302. […]

JAK1 = JAK1 (Homo sapiens, UniProt P23458); conditions: cited from earlier work
women with acne = conditions: orally administered; cited from earlier work

Chain of JAK1 (P23458 whole entry, species assumed): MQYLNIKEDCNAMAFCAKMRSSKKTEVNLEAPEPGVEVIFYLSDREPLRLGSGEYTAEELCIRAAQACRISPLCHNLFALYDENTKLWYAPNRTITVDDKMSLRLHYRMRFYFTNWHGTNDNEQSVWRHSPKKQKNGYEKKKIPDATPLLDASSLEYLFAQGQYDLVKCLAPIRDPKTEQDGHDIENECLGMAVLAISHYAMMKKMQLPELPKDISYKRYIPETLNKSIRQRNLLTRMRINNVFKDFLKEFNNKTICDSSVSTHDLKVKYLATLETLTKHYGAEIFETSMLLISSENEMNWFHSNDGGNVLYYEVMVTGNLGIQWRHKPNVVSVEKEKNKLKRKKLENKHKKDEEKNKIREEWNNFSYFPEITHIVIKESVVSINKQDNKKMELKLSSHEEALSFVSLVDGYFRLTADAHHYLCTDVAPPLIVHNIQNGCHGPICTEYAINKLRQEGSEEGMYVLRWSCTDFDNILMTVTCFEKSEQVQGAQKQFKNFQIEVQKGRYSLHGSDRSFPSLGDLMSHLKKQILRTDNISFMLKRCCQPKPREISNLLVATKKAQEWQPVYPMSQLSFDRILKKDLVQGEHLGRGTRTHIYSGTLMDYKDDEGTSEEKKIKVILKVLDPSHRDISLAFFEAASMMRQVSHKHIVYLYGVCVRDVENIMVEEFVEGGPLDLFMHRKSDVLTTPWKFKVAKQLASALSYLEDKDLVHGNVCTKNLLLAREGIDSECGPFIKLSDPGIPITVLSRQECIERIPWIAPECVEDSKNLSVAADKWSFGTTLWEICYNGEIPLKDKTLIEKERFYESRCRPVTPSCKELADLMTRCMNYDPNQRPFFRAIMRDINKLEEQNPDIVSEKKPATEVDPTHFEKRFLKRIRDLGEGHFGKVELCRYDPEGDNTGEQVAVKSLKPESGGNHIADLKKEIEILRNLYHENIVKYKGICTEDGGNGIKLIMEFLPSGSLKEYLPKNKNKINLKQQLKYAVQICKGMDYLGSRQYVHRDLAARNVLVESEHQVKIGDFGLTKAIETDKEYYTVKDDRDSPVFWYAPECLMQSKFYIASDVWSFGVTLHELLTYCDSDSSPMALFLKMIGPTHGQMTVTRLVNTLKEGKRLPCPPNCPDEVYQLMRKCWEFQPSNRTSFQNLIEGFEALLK

With COc1nsc(NC(=O)N2C[C@H]3C[C@H](N(C)c4ncnc5[nH]ccc45)C[C@H]3C2)n1 [SHR0302, (3aR,5S,6aS)—N-(3-methoxyl-1,2,4-thiadiazol-5-yl)-5-(methyl(7H-pyrrolo[2,3-d]pyrimidin-4-yl)amino)hexahydrocyclopenta[c]pyrrole-2(1H)-carboxamide] the “primary particle size distribution D10 value” [1] was “less than 0.25 μm”, the “primary particle size distribution D50 value” [1] was “less than 0.7 μm” and the “primary particle size distribution D90 value” [1] was “less than 5 μm”. The “selectivity for JAK1 over JAK2” value (JAK1) was “high selectively for JAK1 over JAK2”.
For CC(=O)S[C@@H]1CC2=CC(=O)CC[C@]2(C)[C@H]2CC[C@@]3(C)[C@@H](CC[C@@]34CCC(=O)O4)[C@H]12 [spironolactone, 17-hydroxy-7α-mercapto-3-oxo-17α-pregn-4-ene-21-carboxylic acid γ-lactone acetate], the “efficacy in the treatment of women with acne” value (women with acne) is given as “efficacious”.
